Experimental data as given in patent publication US8309577B2, “Quinuclidine compounds as α-7 nicotinic acetylcholine receptor ligands” (Bristol-Myers Squibb Company, priority 2008, dated 2012).

Target: T1, α-7 nicotinic acetylcholine receptor channel expressed in HEK 293 cells (Rattus norvegicus, UniProt Q05941)
T1 construct: expressed in transfected cells
Assay: Ca2+-sensitive fluorescence-based FLIPR assay, α7 nicotinic ACh receptor channel function (agonist)
Assay type: cell-based
Conditions: not given
Method in brief: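 Potency and efficacy derived from kinetic FLIPR Ca²⁺-flux fluorescence, recorded 3 min after compound addition in Hanks buffer following a 10 s baseline.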

T1 sequence (Q05941 23-502): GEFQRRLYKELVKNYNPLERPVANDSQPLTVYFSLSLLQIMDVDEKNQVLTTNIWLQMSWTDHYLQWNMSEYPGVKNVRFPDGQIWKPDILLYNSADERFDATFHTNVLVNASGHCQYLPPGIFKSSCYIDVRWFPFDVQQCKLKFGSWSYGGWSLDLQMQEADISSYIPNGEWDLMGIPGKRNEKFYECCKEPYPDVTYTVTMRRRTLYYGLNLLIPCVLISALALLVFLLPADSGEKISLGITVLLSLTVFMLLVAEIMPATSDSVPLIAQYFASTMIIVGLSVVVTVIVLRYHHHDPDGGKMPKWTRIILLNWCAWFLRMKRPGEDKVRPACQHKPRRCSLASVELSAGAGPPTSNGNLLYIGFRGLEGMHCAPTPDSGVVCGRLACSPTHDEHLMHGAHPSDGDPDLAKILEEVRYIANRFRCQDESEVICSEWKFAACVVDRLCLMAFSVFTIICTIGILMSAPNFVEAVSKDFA

SMILES | EC50
O=C(c1ccc2nc(NC3=NCC4(CN5CCC4CC5)O3)sc2c1)N1CCCC1 (stereo not shown) [Example 3] | 3840 nM

Same assay, conditions: FLIPR α7 activity rating (EC50, nM), Table 1; HEK 293 cells, agonist Ca2+ flux

SMILES | EC50
COc1ncccc1-c1ccnc(NC2=NC[C@@]3(CN4CCC3CC4)O2)c1 [Example 287, (R)—N-(2-methoxy-3,4′-bipyridin-2′-yl)-4H-1′-azaspiro[oxazole-5,3′-bicyclo[2.2.2]octan]-2-amine] | 100 to 1000 nM
COc1ncc2nc(NC3=NC[C@@]4(CN5CCC4CC5)O3)sc2n1 [Example 265, (R)—N-(5-Methoxythiazolo[5,4-d]pyrimidin-2-yl)-4H-1′-azaspiro[oxazole-5,3′-bicyclo[2.2.2]octan]-2-amine] | < 100 nM
Clc1ccc2nc(NC3=NC[C@@]4(CN5CCC4CC5)O3)sc2n1 [Example 268, (R)—N-(5-chlorothiazolo[5,4-b]pyridin-2-yl)-4H-1′-azaspiro[oxazole-5,3′bicyclo[2.2.2]octan]-2-amine] | < 100 nM
CCc1cnc(NC2=NC[C@@]3(CN4CCC3CC4)O2)nc1 [Example 227] | 100 to 1000 nM
Clc1ccc2cnc(NC3=NC[C@@]4(CN5CCC4CC5)O3)cc2c1Cl [Example 281, (R)—N-(5,6-Dichloroisoquinolin-3-yl)-4H-1′-azaspiro[oxazole-5,3′-bicyclo[2.2.2]octan]-2-amine] | < 100 nM
CC(C)Oc1cc(NC2=NC[C@@]3(CN4CCC3CC4)O2)ncn1 [Example 232, (R)—N-(6-Isopropoxypyrimidin-4-yl)-4H-1′-azaspiro[oxazole-5,3′-bicyclo[2.2.2]octan]-2-amine] | 100 to 1000 nM
Cc1cccc2sc(NC3=NCC4(CN5CCC4CC5)O3)nc12 (stereo not shown) [Example 6, N-(4-Methylbenzo[d]thiazol-2-yl)-4H-1′-azaspiro[oxazole-5,3′-bicyclo[2.2.2]octan]-2-amine] | 100 to 1000 nM
N#Cc1cnc(NC2=NC[C@@]3(CN4CCC3CC4)O2)cn1 [Example 148] | 1000 to 100000 nM
c1ccc2sc(NC3=NCC4(CN5CCC4CC5)O3)nc2c1 (racemic) [Example 1, N-(benzo[d]thiazol-2-yl)-4H-1′-azaspiro[oxazole-5,3′-bicyclo[2.2.2]octan]-2-amine] | < 100 nM
Clc1cccc(-c2cc(NC3=NC[C@@]4(CN5CCC4CC5)O3)ncn2)c1 [Example 257, (R)—N-(6-(3-Chlorophenyl)pyrimidin-4-yl)-4H-1′-azaspiro[oxazole-5,3′-bicyclo[2.2.2]octan]-2-amine] | < 100 nM
Cn1c(NC2=NCC3(CN4CCC3CC4)O2)nc2ccccc21 (stereo not shown) [Example 10, N-(1-methyl-1H-benzo[d]imidazol-2-yl)-4H-1′-azaspiro[oxazole-5,3′-bicyclo[2.2.2]octan]-2-amine] | 100 to 1000 nM
O=C(c1ccc2nc(NC3=NCC4(CN5CCC4CC5)O3)sc2c1)N1CCCC1 (stereo not shown) [Example 3] | 1000 to 100000 nM
Clc1cccc(NC2=NC[C@@]3(CN4CCC3CC4)O2)n1 [Example 285, (R)—N-(6-Chloropyridin-2-yl)-4H-1′-azaspiro[oxazole-5,3′-bicyclo[2.2.2]octan]-2-amine] | 100 to 1000 nM
c1ccc(-c2nnc(NC3=NCC4(CN5CCC4CC5)O3)s2)cc1 (stereo not shown) [Example 56] | 1000 to 100000 nM

Same assay, conditions: FLIPR α7 activity rating (EC50, nM), Table Ib; HEK 293 cells, agonist Ca2+ flux

SMILES | EC50
Cc1nc(NC2=NC[C@@]3(CN4CCC3CC4)O2)nc2cc(F)ccc12 [Example 324, (R)—N-(7-Fluoro-4-methylquinazolin-2-yl)-4H-1′-azaspiro[oxazole-5,3′-bicyclo[2.2.2]octan]-2-amine] | < 100 nM
Clc1c(NC2=NC[C@@]3(CN4CCC3CC4)O2)ncc2ccccc12 [Example 311, (R)—N-(4-Chloroisoquinolin-3-yl)-4H-1′-azaspiro[oxazole-5,3′-bicyclo[2.2.2]octan]-2-amine] | < 100 nM
c1nc(NC2=NC[C@@]3(CN4CCC3CC4)O2)cc(-n2cncn2)n1 [Example 351, (R)—N-(6-(1H-1,2,4-triazol-1-yl)pyrimidin-4-yl)-4H-1′-azaspiro[oxazole-5,3′-bicyclo[2.2.2]octan]-2-amine] | < 100 nM
Cc1nc(NC2=NC[C@@]3(CN4CCC3CC4)O2)cc2ccccc12 [Example 313, (R)—N-(1-Methylisoquinolin-3-yl)-4H-1′-azaspiro[oxazole-5,3′-bicyclo[2.2.2]octan]-2-amine] | < 100 nM
